Patent publication US11213524B2, “Pharmaceutical compositions for subcutaneous administration of levosimendan” (Tenax Therapeutics, Inc., priority 2018, dated 2022)

Key:
[1] = Storage stability of lyophilized levosimendan/Captisol composition (HPLC % area); format: physicochemical; settings: for quantity of OR-1420: after 6 months
Description: A study was conducted to determine the stability of a levosimendan composition of the present invention stored under different conditions for up to six months.
The composition used for the study comprised 3 mg/ml of levosimendan and 200 mg/ml of Captisol®. To prepare the composition, the levosimendan and Captisol® were mixed together, adjusted to a pH of 7.4 using 1N NaOH, and then lyophilized.
Samples were dissolved in 50% acetonitrile and stored frozen at approximately −20° C. The compositions were analyzed at the following time points: 0, 1-month, 2-months, 4-months, and 6-months. The compositions were taken out of storage and reconstituted using distilled water. A sample from each composition was diluted at 15x-150x and analyzed using HPLC (Sciex API 3200 Linear Ion Trap, Shimadzu LC-20ADVP HPLC Pumps, Shimadzu Controller SCL-10AVP, Shimadzu Autosampler SIL-20ADVP) under the following conditions: Column, Restek Raptor Biphenyl, 2.7 μm, 100×3 mm; Mobile phase A, 5 mM Ammonium Formate/0.1% FA in H2O; Mobile phase B, 100% methanol).

[2] = cited from earlier work
[3] = Solubility of levosimendan at different Captisol concentrations (HPLC); format: physicochemical; settings: 10 mM phosphate buffer, pH 7, Captisol 0, 50, 100, 200, 400 mg/ml, room temperature
Description: A study was conducted to evaluate the impact of the concentration of the cyclodextrin or cyclodextrin derivative on the solubility of levosimendan. In particular, the study focused on the cyclodextrin derivative, Captisol® (sulfobutylether beta-cyclodextrin).
The study compared compositions comprising levosimendan, 10 mM phosphate buffer, and Captisol® at the following concentrations: 0 mg/ml (i.e., no Captisol®), 50 mg/ml, 100 mg/ml, 200 mg/ml, and 400 mg/ml. The compositions with Captisol® were prepared by mixing the levosimendan and Captisol®, and adding the 10 mM phosphate buffer until the pH of the composition was 7. The compositions were stored at room temperature.
Captisol®'s impact on the solubility of levosimendan was determined using HPLC.

[4] = Pharmacokinetic study, IV vs subcutaneous dosing, plasma levosimendan and OR-1896 by HPLC/MS/MS; settings: male, Sprague Dawley, rat, in vivo
Description: A pharmacokinetic study was conducted in male Sprague Dawley rats to compare subcutaneous administration of a composition of the present invention with IV administration of a formulation of levosimendan. The study evaluated levosimendan blood levels and pain at the injection site.
This study involved comparing the results of administering two subcutaneous compositions according to embodiments of the present invention to a previous pharmacokinetic study in which male rats were dosed by tail vein levosimendan as an IV bolus injection at 0.5 mg/kg using a 0.25 mg/ml solution. […]
Plasma samples were analyzed for levosimendan and OR-1896 (the primary metabolite) by HPLC/MS/MS. […]

[5] = after four months, 25° C./60% RH
[6] = after six months, 25° C./60% RH

## C[C@@H]1CC(=O)NN=C1c1ccc(N/N=C(\C#N)C(N)=O)cc1 [OR-1420]
[1]; 5° C., 1-month
  Level of OR-1420 (% Area): 0.055% Area
[1]; 5° C., 4-months
  Level of OR-1420 (% Area): 0.057% Area
[1]; 5° C., 6-months
  Level of OR-1420 (% Area): 0.112% Area
[1]; 25° C./60% RH, 1-month
  Level of OR-1420 (% Area): 0.155% Area
[1]; 25° C./60% RH, 2-months
  Level of OR-1420 (% Area): 0.212% Area
[1]; 25° C./60% RH, 4-months
  Level of OR-1420 (% Area): 0.285% Area
[1]; 25° C./60% RH, 6-months
  Level of OR-1420 (% Area): 0.377% Area
[1]; 40° C./75% RH, 1-month
  Level of OR-1420 (% Area): 0.436% Area
[1]; 40° C./75% RH, 4-months
  Level of OR-1420 (% Area): 0.999% Area
[1]; 40° C./75% RH, 6-months
  Level of OR-1420 (% Area): 1.420% Area
[1]; 40° C./75% RH
  quantity of OR-1420: below 1.5%
[1]; T0
  Level of OR-1420 (% Area): 0.021% Area
[1]; after four months, 5° C.
  Level of Degradants (% Area): 0.057 % Area
[1]; [5]
  Level of Degradants (% Area): 0.285 % Area
[1]; after four months, 40° C./75% RH
  Level of Degradants (% Area): 0.999 % Area
[1]; after four months, −20° C.
  Level of Degradants (% Area): 0.045 % Area
[1]; after four months, −80° C.
  Level of Degradants (% Area): 0.084 % Area
[1]; after six months, 5° C.
  Level of Degradants (% Area): 0.112 % Area
[1]; [6]
  Level of Degradants (% Area): 0.377 % Area
[1]; after six months, 40° C./75% RH
  Level of Degradants (% Area): 1.42 % Area
[1]; after six months, −20° C.
  Level of Degradants (% Area): 0.082 % Area
[1]; after six months, −80° C.
  Level of Degradants (% Area): 0.083 % Area
[1]; all other storage conditions
  quantity of OR-1420: less than 0.5%
[1]; −20° C., 1-month
  Level of OR-1420 (% Area): 0.050% Area
[1]; −20° C., 4-months
  Level of OR-1420 (% Area): 0.045% Area
[1]; −20° C., 6-months
  Level of OR-1420 (% Area): 0.082% Area
[1]; −80° C., 1-month
  Level of OR-1420 (% Area): 0.055% Area
[1]; −80° C., 4-months
  Level of OR-1420 (% Area): 0.084% Area
[1]; −80° C., 6-months
  Level of OR-1420 (% Area): 0.083% Area

## CC(=O)Nc1ccc(C2=NNC(=O)C[C@H]2C)cc1 [OR-1896]
[2]; after starting a 24-hour infusion
  time at which maximum concentrations of OR-1896 are seen: 2 to 4 days
[2]; heart failure patients
  half-life of OR-1896: 70 to 80 h

## C[C@@H]1CC(=O)NN=C1c1ccc(NN=C(C#N)C#N)cc1 [levosimendan, (−)-enantiomer of [[4-(1,4,5,6-tetrahydro-4-methyl-6-oxo-3-pyridazinyl)phenyl]hydrazono]prop anedinitrile]
[1]; 3 mg/ml levosimendan, 200 mg/ml Captisol, lyophilized, T0
  Levels of Levosimendan (% Area): 99.98% Area
[1]; 5° C., 1-month
  Levels of Levosimendan (% Area): 99.85% Area
[1]; 5° C., 2-months
  Levels of Levosimendan (% Area): 100.00% Area
[1]; 5° C., 4-months
  Levels of Levosimendan (% Area): 99.74% Area
[1]; 5° C., 6-months
  Levels of Levosimendan (% Area): 99.73% Area
[1]; 25° C./60% RH, 1-month
  Levels of Levosimendan (% Area): 99.75% Area
[1]; 25° C./60% RH, 2-months
  Levels of Levosimendan (% Area): 99.79% Area
[1]; 25° C./60% RH, 4-months
  Levels of Levosimendan (% Area): 99.51% Area
[1]; 25° C./60% RH, 6-months
  Levels of Levosimendan (% Area): 99.49% Area
[1]; 40° C./75% RH, 1-month
  Levels of Levosimendan (% Area): 99.51% Area
[1]; 40° C./75% RH, 4-months
  Levels of Levosimendan (% Area): 98.88% Area
[1]; 40° C./75% RH, 6-months
  Levels of Levosimendan (% Area): 98.37% Area
[1]; after four months, 5° C.
  Level of Degradants (% Area): 99.91 % Area
[1]; [5]
  Level of Degradants (% Area): 99.64 % Area
[1]; after four months, −20° C.
  Level of Degradants (% Area): 99.93 % Area
[1]; after six months, 5° C.
  Level of Degradants (% Area): 99.90 % Area
[1]; [6]
  Level of Degradants (% Area): 99.57 % Area
[1]; each storage condition, after six months
  level of levosimendan: over 98%
[1]; −20° C., 1-month
  Levels of Levosimendan (% Area): 99.83% Area
[1]; −20° C., 4-months
  Levels of Levosimendan (% Area): 99.79% Area
[1]; −20° C., 6-months
  Levels of Levosimendan (% Area): 99.72% Area
[1]; −80° C., 1-month
  Levels of Levosimendan (% Area): 99.82% Area
[1]; −80° C., 4-months
  Levels of Levosimendan (% Area): 99.74% Area
[1]; −80° C., 6-months
  Levels of Levosimendan (% Area): 99.74% Area
[3]
  solubility of levosimendan: increased as the concentration of Captisol® increased
[2]; in vivo
  share of total levosimendan dose reduced in the intestine to OR-1855 (minor pathway): approximately 6%
  terminal elimination half-life of levosimendan: about 1 hour
[4]
  start of the β phase (loss of drug from blood mainly due to metabolism): about 2 hours
